{"source": "paper PMC11946789", "about": "“Two Amino Acid Substitutions Improve the Pharmacological Profile of the Snake Venom Peptide Mambalgin” (Toxins, 2025)", "key": {"[1]": {"test_system": "acetic acid-induced writhes", "assay": "Acetic acid-induced writhing pain test", "type": "in vivo, male ICR mice", "conditions": "for decrease in number of writhes: 90 min before i.p. 0.6% acetic acid, 15 min, n = 8, vs saline control (41 ± 8 writhes); for number of writhes (result in words): 0.01 and 0.1 mg/kg, 90 min prior to testing", "description": "ASIC channels play a critical role in the perception of acid-induced pain [8, 38]. As effective inhibitors of ASIC1-containing channels, Mamb and Mamb-AL could serve as potential therapeutics for this type of pathology. To evaluate this hypothesis, we employed the acetic acid-induced writhing test as an in vivo model of acute pain. In this model, intraperitoneal administration of 0.6% acetic acid provokes a stereotypical behavior in mice characterized by abdominal contractions (acetic acid-induced writhes).\nFigure 5 Analgesic effect of peptides Mamb and Mamb-AL in an acute pain model. Peptides were administered intramuscularly 90 min before testing. Their efficacy was assessed using the acetic acid-induced writhing test, where the number of writhes was counted after intraperitoneal administration of 0.6% acetic acid. Results are presented as mean ± SD (n = 8 for each group). Statistical analysis was performed using one-way ANOVA followed by Dunnett’s post hoc test. * p< 0.05, ** p< 0.01, *** p< 0.005, **** p< 0.001 indicate significant differences compared with the control group, and ns indicates no significant difference.\nThe number of writhes in the control group treated with saline was 41 ± 8. Administration of wild-type peptide at doses of 0.01 and 0.1 mg/kg decreased the number of writhes by approximately 29% and 27%, respectively.\nAdult (8–10 weeks) male ICR mice (25–30 g, Animal Breeding Facility Branch of the Shemyakin–Ovchinnikov Institute of Bioorganic Chemistry, Russian Academy of Sciences, Pushchino, Russia) were housed in Type 3 standard polycarbonate cages (820 cm^2) with LIGNOCEL BK 8/15 bedding (JRS, Rosenberg, Germany) under controlled conditions (23 ± 2 °C, 12h light–dark cycle) with ad libitum access to food and water. Test substances were dissolved in saline and administered intramuscularly 90 min before testing. The visceral pain assay was performed as described by. Distinct groups (n = 8 for each group) of mice were administered with 0.6% acetic acid in saline intraperitoneally (i.p.). Writhing behavior was recorded for 15 min after the mice were placed in transparent glass cylinders. A blinded observer assessed the responses. No formal power analysis was performed prior to the experiments, as the effect size and variability of the peptide treatment were unknown. However, because the initial results were highly significant, no additional animals were used. No animals were excluded from the analysis. Peptides (Mamb and Mamb-AL) were compared with a saline control group using analysis of variance (ANOVA) with post hoc Dunnett’s test. Data are presented as mean ± standard deviation (SD)."}, "[2]": {"test_system": "heteromeric rat ASIC1a/3 channels (rASIC1a/3)", "assay": "TEVC recordings, heteromeric rASIC1a/3", "type": "cell-based", "conditions": "for inhibition of rASIC1a/3: 100 nM, pH 5.5 stimulus, conditioning pH 7.4, % of control currents, n = 5, p < 0.05 Mamb-AL vs Mamb, unpaired t-test", "description": "Figure 4 The inhibitory effect of Mamb-AL on other ASIC1-containing channels exceeds that of Mamb. (A,C) Representative current traces showing the effects of various concentrations of Mamb (left panels) and Mamb-AL (right panels) on homomeric rat ASIC1b (rASIC1b) (A) and heteromeric rat ASIC1a/3 (rASIC1a/3) channels (C). Currents were evoked by a pH 5.5 stimulus following a conditioning pH of 7.4, with peptides applied for 30 s prior to the pH stimulus. (B) Dose–response curves for the inhibitory effects of Mamb and Mamb-AL on rASIC1b. Each data point represents measurements from 5 to 7 cells. (D) Bar graph quantifying the inhibitory effects of Mamb and Mamb-AL on rASIC1a/3, shown as a percentage of the corresponding control currents (n = 5). Data are presented as mean ± SEM; * p< 0.05, unpaired t-test. […] Data are shown as mean ± SEM; ns indicates no significant difference vs. control (dotted horizontal line), paired t-test.\nFemale X.laevis frogs were anesthetized with 0.17% ethyl 3-amino-benzoate methane sulfonate (MS222). A small ovarian section was surgically removed via an abdominal incision and placed in ND96 medium (96 mM NaCl, 2 mM KCl, 1.8 mM CaCl2, 1 mM MgCl2, and 5 mM HEPES, pH 7.4, adjusted with NaOH). […] Each animal underwent surgeries at intervals of no less than three months. Connective tissue and follicular sheaths were removed by incubating ovarian tissue in calcium-free ND96 medium containing collagenase (1 mg/mL) for 2 h at 21 °C. Healthy, mature stage IV and V oocytes were selected and stored in ND96 medium. […]\n(§1) Whole-cell ASIC currents were measured using the two-electrode voltage clamp (TEVC) method with a GeneClamp 500 amplifier (Axon Instruments, Union City, NJ, USA). […]\n(§2) Electrophysiological and behavioral data were analyzed using OriginPro 8.6.0 (OriginLab, Washington, DC, USA). […] Statistical significance between the Mamb and Mamb-AL groups was determined using an unpaired t-test. […]"}, "[3]": {"test_system": "homomeric rat ASIC3 channels", "assay": "TEVC recordings, homomeric ASIC3", "type": "cell-based", "conditions": "pH stimulus; n = 5; ns vs control, paired t-test", "description": "Figure 4 The inhibitory effect of Mamb-AL on other ASIC1-containing channels exceeds that of Mamb. (A,C) Representative current traces showing the effects of various concentrations of Mamb (left panels) and Mamb-AL (right panels) on homomeric rat ASIC1b (rASIC1b) (A) and heteromeric rat ASIC1a/3 (rASIC1a/3) channels (C). Currents were evoked by a pH 5.5 stimulus following a conditioning pH of 7.4, with peptides applied for 30 s prior to the pH stimulus. (B) Dose–response curves for the inhibitory effects of Mamb and Mamb-AL on rASIC1b. Each data point represents measurements from 5 to 7 cells. (D) Bar graph quantifying the inhibitory effects of Mamb and Mamb-AL on rASIC1a/3, shown as a percentage of the corresponding control currents (n = 5). Data are presented as mean ± SEM; * p< 0.05, unpaired t-test. […] Data are shown as mean ± SEM; ns indicates no significant difference vs. control (dotted horizontal line), paired t-test. […]\nas §1, §2"}}, "note": "Bridges are numbered along the chain shown (N, C = ends). Where no end group is shown, it is not given here."}
{"sequence": "LKCFQHGKVVTCHRDMKFCYHNTGMPFRNLKLILQGCSSSCSETENNKCCSTDRCNK (disulfide 3-19, 12-37, 41-49, 50-55 (inferred)) [Mamb]", "values": [{"measurement": "decrease in number of writhes", "setting": "[1]; 0.01 mg/kg intramuscular", "result": "approximately 29%"}, {"measurement": "decrease in number of writhes", "setting": "[1]; 0.1 mg/kg intramuscular", "result": "~27", "unit": "%"}, {"measurement": "number of writhes (result in words)", "setting": "[1]", "result": "significantly reduced the number of writhes"}, {"measurement": "inhibition of rASIC1a/3", "setting": "[2]", "result": 13, "unit": "%"}, {"measurement": "effect on rat ASIC3 channels", "setting": "[3]", "result": "neither wild-type Mamb nor Mamb-AL exhibited any detectable effects"}]}
{"sequence": "LKCYQHGKVVTCHRDAKFCYHNTGLPFRNLKLILQGCSSSCSETENNKCCSTDRCNK (disulfide 3-19, 12-37, 41-49, 50-55 (inferred)) [Mamb-AL]", "values": [{"measurement": "decrease in number of writhes", "setting": "[1]; 0.01 mg/kg intramuscular", "result": "~ 41%"}, {"measurement": "decrease in number of writhes", "setting": "[1]; 0.1 mg/kg intramuscular", "result": "~ 34%"}, {"measurement": "analgesic effect relative to wild-type Mamb", "setting": "[1]; 0.01 and 0.1 mg/kg intramuscular", "result": "trend toward a stronger analgesic effect than the wild-type Mamb"}, {"measurement": "number of writhes (result in words)", "setting": "[1]", "result": "significantly reduced the number of writhes"}, {"measurement": "inhibition of rASIC1a/3", "setting": "[2]", "result": 32, "unit": "%"}, {"measurement": "increase in inhibition of heteromeric ASIC1a/3 channels", "setting": "[2]; compared with Mamb", "result": "two-fold increase"}, {"measurement": "effect on rat ASIC3 channels", "setting": "[3]", "result": "neither wild-type Mamb nor Mamb-AL exhibited any detectable effects"}]}
